Consider 2 molecules from patent US5681833A, “Benzodiazepine derivatives” (Merck, Sharp & Dohme Ltd., priority 1992, dated 1997).

One test deals with T1, CCK receptor (pancreas) (Rattus norvegicus, UniProt P30551).
T1 construct: The whole pancreas was dissected free of fat tissue and was homogenized; from tissue; host or cells: whole pancreas of male Sprague-Dawley rats, homogenate membranes
T1 sequence (P30551 1-444): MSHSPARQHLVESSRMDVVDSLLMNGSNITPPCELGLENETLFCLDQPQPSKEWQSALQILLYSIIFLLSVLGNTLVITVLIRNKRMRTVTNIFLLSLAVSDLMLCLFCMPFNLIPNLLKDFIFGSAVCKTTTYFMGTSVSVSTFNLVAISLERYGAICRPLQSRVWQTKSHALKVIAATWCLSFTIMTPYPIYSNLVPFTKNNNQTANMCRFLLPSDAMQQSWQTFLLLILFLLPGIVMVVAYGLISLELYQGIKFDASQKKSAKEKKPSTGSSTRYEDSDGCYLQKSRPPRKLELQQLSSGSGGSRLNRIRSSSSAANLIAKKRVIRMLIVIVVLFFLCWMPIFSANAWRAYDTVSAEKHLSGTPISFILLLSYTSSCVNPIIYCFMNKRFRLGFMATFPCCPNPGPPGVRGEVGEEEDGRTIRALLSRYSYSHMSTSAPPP
The test can be described thus: CCK Receptor Binding (Pancreas), inhibition of specific 125I-CCK-8 binding. Further details: species or system rat (male Sprague-Dawley). The method, then:
1. CCK Receptor Binding (Pancreas)
CCK-8 sulphated was radiolabelled with ^125 I-Bolton Hunter reagent (2000 Ci/mmole). Receptor binding was performed according to Chang and Lotti (Proc. Natl. Acad. Sci. 83, 4923-4926, 1986) with minor modifications.
Male Sprague-Dawley rats (150-200 g) were sacrificed by decapitation. The whole pancreas was dissected free of fat tissue and was homogenized in 25 volumes of ice-cold 10 mM N-2-hydroxyethyl-piperazine-N'-2-ethane sulphonic acid (HEPES) buffer with 0.1% soya bean trypsin inhibitor (pH 7.4 at 25° C.) with a Kinematica Polytron. The homogenates were centrifuged at 47,800 g for 10 min. Pellets were resuspended in 10 volumes of binding assay buffer (20 mM (HEPES)), 1 mM ethylene glycol-bis-(β-aminoethylether-N,N'-tetraacetic acid) (EGTA), 5 mM MgCl2, 150 mM NaCl, bacitracin 0.25 mg/ml, soya bean trypsin inhibitor 0.1 mg/ml, and bovine serum albumin 2 mg/ml pH 6.5 at 25° C.) using a Teflon (trademark) homogenizer, 15 strokes at 500 rpm. The homogenate was further diluted in binding assay buffer to give a final concentration of 0.5 mg original wet weight/1 ml buffer. […] All assays were run in duplicate. The reaction mixtures were incubated at 25° C. for 2 hours and the reaction terminated by rapid filtration (Brandell 24 well cell harvester) over Whatman GF/C filters, washing 3×4 mls with ice-cold 100 Mm NaCl. The radioactivity on the filters was counted with a LKB gamma counter.

The target of the next test is T2, CCK receptor (brain) (Cavia porcellus, UniProt H0VZC5).
T2 construct: the cortex was removed and homogenized in 25 mL ice-cold 0.32M sucrose; from tissue; host or cells: cortex of male Hartley guinea pigs, P2 membranes
T2 sequence (H0VZC5 1-426): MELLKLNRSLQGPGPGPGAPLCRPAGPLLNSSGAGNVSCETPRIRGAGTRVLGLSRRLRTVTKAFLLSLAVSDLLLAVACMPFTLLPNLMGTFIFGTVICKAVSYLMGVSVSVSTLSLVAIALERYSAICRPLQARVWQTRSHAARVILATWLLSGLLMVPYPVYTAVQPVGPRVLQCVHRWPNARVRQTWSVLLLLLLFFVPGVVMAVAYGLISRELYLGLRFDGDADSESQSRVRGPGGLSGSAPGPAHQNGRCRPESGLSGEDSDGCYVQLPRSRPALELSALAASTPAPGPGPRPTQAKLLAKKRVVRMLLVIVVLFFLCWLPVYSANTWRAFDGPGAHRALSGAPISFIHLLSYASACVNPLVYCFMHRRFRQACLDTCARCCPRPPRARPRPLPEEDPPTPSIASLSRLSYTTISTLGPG
The test can be described thus: CCK Receptor Binding (Brain), inhibition of specific 125I-CCK-8 binding. Further details: species or system guinea pig (male Hartley). The protocol: 2. CCK Receptor Binding (Brain)
CCK-8 sulphated was radiolabelled and the binding was performed according to the description for the pancreas method with minor modifications.
Male Hartley guinea pigs (300-500 g) were sacrificed by decapitation and the cortex was removed and homogenized in 25 mL ice-cold 0.32M sucrose. The homogenates were centrifuged at 1000 g for 10 minutes and the resulting supernatant was recentrifuged at 20,000 g for 20 minutes. The P2 pellet was resuspended in binding assay buffer (20mM HEPES, 5 mM MgCl2, 0.25 mg/ml bacitracin, 1 mM EGTA pH 6.5 at 25° C.), using a Teflon (trademark) homogenizer (5 strokes at 500 rpm) to give a final concentration of 10 mg original wet weight/1.2 ml buffer. […] All assays were run in duplicate. The reaction mixtures were incubated at 25° C. for 2 hours and then the reaction was terminated by rapid filtration (Brandell 24 well cell harvester) on Whatman GF/C filters with 3×5 ml washes of cold 100 mM NaCl. The radioactivity on the filters was counted with a LKB gamma counter.

Read-outs that look alike come from different tables or passages of the source. Bounds are passed on as bounds.

What is called IC50 is the concentration at which inhibition is half-maximal. On to `CN1C(=O)[C@H](NC(=O)Nc2cccc(Nc3nn[nH]n3)c2)N=C(c2ccccc2)c2ccccc21` [Example 8, (+)-N-[3(R)-2,3-Dihydro-1-methyl-2-oxo-5-phenyl-1H-1,4-benzodiazepin-3-yl]-N'-[3-{(tetrazol-5-yl)amino}phenyl]urea], for which the IC50 on CCK receptor (pancreas) is over 3000 nM; at CCK receptor (brain) it was 5.7 nM.
For `Cc1ccc(NC(=O)N[C@@H]2N=C(C3CCCCC3)c3ccccc3N(C)C2=O)cc1Nc1nnn[nH]1` [Example 10, (+)-N-[3(R)-5-Cyclohexyl-2,3-dihydro-1-methyl-2-oxo-1H-1,4-benzodiazepin-3-yl]-N'-[4-methyl-3-{(tetrazol-5-yl)amino}phenyl]urea], the IC50 on CCK receptor (pancreas) (rat pancreas membranes, 50 pM 125I-CCK-8, 25° C., 2 hours, pH 6.5, read-out: IC50 125I-CCK Pancreas) worked out at 802 nM; at CCK receptor (brain) (guinea pig cortex membranes, 50 pM 125I-CCK-8, 25° C., 2 hours, pH 6.5, read-out: IC50 125I-CCK Brain) it was 0.042 nM.
